Key:
Assay in all cases: biochemical
Parameters in all cases: SelectScreen Z'-LYTE purified kinase panel, per cent inhibition, mean of two points
Conditions in all cases: (μM)=Km app
KIT = KIT (Homo sapiens, UniProt P10721)
IKBKB (IKK beta) = biological target: T1, IKBKB (IKK beta) (Homo sapiens, UniProt O14920)
T1 sequence (O14920 1-756): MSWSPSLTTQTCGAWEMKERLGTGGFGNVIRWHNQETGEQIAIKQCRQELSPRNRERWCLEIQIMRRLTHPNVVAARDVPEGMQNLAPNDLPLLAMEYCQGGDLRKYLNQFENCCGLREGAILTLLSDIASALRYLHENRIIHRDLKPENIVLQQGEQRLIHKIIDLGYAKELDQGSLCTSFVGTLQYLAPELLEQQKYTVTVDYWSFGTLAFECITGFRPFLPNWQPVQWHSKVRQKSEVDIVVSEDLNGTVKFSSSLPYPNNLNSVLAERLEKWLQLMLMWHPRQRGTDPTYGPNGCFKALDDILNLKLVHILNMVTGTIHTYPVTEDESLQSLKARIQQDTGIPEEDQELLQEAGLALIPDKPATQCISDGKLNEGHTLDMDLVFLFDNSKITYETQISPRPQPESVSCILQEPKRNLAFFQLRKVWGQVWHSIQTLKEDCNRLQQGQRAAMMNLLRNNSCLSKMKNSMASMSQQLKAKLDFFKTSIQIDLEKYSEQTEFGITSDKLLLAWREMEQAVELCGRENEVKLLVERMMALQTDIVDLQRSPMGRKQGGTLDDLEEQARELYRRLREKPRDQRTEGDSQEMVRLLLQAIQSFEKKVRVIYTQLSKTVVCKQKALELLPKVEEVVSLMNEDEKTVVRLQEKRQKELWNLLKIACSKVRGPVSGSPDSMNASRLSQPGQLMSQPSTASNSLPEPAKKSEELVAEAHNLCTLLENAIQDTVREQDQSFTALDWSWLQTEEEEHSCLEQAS

MAPKAPK2 = MAPKAPK2 (Homo sapiens, UniProt P49137)
MAPKAPK2, sequence (P49137 whole entry): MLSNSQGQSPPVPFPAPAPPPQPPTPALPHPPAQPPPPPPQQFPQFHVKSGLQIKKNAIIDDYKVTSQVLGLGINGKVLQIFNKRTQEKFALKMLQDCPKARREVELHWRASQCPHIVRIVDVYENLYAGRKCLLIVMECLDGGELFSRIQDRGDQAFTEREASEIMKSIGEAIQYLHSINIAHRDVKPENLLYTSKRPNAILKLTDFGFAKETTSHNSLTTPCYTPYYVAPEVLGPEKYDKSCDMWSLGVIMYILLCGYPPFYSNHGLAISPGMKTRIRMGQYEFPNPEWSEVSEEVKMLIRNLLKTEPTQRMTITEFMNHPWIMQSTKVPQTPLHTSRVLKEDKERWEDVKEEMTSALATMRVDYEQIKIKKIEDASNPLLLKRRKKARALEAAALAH

CSK = CSK (Homo sapiens, UniProt P41240)
CSK, sequence (P41240 whole entry): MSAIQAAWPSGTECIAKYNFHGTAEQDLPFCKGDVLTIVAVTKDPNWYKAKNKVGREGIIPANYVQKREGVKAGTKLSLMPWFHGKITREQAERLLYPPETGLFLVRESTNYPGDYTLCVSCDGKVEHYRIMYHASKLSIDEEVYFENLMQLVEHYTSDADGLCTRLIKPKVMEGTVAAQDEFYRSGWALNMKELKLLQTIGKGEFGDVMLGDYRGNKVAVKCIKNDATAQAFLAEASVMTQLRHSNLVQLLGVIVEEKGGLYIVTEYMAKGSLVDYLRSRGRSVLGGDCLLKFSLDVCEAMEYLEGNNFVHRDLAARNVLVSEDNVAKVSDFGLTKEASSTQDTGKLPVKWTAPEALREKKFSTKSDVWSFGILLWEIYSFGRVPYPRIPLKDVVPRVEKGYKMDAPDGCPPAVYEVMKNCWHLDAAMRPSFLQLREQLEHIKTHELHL

CSNK1D (CK1 delta) = CSNK1D (CK1 delta) (Homo sapiens, UniProt P48730)
CSNK1D (CK1 delta), sequence (P48730 whole entry): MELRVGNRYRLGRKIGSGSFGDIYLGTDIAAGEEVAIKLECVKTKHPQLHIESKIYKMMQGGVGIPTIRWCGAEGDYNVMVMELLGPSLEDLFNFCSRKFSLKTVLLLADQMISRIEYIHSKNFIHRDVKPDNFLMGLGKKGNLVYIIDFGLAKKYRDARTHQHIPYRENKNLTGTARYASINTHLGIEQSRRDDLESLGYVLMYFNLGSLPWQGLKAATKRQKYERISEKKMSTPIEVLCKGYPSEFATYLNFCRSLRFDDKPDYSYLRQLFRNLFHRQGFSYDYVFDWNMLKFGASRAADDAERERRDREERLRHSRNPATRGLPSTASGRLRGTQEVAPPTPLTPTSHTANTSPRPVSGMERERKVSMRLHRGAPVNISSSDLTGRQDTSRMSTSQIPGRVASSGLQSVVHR

TYK2 = TYK2 (Homo sapiens, UniProt P29597)
TYK2, sequence (P29597 whole entry): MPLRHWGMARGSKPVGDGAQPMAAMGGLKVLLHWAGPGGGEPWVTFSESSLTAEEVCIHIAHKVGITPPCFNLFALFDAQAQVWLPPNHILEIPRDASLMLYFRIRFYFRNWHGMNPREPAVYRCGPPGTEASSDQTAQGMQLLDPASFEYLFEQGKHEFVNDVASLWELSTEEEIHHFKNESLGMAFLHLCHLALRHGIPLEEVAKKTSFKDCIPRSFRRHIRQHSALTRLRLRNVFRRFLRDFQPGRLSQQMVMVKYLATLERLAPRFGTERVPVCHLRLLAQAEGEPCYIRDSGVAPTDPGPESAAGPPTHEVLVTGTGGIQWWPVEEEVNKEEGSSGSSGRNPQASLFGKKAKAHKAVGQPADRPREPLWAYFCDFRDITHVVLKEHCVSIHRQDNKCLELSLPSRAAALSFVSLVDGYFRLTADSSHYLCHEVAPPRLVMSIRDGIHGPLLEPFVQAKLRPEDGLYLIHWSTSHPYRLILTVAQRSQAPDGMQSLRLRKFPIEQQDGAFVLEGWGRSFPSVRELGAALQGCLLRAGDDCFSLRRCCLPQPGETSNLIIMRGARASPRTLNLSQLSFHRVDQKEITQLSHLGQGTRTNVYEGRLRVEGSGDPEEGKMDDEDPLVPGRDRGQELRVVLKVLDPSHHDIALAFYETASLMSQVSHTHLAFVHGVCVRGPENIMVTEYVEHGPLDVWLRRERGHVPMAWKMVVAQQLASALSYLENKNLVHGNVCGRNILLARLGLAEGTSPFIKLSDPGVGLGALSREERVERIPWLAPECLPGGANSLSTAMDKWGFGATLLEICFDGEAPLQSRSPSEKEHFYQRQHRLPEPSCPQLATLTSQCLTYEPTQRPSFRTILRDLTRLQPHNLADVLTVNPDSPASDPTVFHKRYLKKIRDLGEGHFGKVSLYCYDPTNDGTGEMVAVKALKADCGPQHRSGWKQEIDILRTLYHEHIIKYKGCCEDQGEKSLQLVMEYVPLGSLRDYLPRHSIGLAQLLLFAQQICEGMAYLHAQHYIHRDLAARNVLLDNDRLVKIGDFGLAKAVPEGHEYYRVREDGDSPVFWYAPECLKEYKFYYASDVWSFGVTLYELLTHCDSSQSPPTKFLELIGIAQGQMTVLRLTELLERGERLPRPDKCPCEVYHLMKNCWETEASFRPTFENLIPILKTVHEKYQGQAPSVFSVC

PDGFRB (PDGFR beta) = PDGFRB (PDGFR beta) (Homo sapiens, UniProt P09619)
PRKCE (PKC epsilon) = biological target: T2, PRKCE (PKC epsilon) (Homo sapiens, UniProt Q02156)
T2 sequence (Q02156 1-737): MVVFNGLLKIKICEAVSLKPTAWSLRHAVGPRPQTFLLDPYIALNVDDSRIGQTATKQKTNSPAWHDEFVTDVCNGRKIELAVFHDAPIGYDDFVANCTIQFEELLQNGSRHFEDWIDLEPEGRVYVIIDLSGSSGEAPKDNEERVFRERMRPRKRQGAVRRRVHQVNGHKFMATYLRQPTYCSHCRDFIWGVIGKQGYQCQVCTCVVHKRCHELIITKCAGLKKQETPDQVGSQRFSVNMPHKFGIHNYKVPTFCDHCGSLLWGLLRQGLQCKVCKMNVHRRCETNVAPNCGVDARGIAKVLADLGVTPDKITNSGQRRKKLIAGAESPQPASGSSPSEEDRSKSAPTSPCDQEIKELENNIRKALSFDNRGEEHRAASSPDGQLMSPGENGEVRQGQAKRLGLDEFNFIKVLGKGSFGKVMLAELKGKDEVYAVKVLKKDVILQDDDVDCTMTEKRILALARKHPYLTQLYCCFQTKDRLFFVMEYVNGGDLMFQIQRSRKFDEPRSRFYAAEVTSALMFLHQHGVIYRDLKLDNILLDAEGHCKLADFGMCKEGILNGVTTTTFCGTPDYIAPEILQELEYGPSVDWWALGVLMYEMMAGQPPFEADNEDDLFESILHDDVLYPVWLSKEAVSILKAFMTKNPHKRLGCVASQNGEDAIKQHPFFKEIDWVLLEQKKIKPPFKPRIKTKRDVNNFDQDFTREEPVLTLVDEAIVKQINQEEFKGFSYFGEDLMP

FGFR2 = FGFR2 (Homo sapiens, UniProt P21802)
FGFR2, sequence (P21802 whole entry): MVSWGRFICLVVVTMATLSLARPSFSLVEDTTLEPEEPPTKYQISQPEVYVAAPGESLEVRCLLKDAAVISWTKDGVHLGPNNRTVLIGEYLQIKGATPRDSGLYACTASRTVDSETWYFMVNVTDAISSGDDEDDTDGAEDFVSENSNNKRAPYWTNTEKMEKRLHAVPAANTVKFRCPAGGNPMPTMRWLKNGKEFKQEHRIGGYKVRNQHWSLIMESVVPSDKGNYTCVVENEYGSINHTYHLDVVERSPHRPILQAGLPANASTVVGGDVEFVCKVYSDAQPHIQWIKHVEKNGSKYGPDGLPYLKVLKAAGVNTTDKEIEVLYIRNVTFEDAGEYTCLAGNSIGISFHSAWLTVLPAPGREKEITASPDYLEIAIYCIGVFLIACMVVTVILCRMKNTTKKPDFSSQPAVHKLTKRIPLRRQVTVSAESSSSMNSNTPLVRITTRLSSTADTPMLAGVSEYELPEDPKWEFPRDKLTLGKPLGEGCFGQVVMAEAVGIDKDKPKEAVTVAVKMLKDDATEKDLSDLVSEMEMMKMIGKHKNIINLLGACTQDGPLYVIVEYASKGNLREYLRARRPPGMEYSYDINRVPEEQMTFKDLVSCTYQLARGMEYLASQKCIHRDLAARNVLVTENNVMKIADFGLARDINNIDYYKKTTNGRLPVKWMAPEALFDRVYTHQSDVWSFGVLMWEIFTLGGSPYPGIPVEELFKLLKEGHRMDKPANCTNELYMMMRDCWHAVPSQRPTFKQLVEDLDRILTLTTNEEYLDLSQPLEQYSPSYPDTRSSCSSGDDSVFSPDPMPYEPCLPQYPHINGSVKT

PLK3 = PLK3 (Homo sapiens, UniProt Q9H4B4)
PLK3, sequence (Q9H4B4 whole entry): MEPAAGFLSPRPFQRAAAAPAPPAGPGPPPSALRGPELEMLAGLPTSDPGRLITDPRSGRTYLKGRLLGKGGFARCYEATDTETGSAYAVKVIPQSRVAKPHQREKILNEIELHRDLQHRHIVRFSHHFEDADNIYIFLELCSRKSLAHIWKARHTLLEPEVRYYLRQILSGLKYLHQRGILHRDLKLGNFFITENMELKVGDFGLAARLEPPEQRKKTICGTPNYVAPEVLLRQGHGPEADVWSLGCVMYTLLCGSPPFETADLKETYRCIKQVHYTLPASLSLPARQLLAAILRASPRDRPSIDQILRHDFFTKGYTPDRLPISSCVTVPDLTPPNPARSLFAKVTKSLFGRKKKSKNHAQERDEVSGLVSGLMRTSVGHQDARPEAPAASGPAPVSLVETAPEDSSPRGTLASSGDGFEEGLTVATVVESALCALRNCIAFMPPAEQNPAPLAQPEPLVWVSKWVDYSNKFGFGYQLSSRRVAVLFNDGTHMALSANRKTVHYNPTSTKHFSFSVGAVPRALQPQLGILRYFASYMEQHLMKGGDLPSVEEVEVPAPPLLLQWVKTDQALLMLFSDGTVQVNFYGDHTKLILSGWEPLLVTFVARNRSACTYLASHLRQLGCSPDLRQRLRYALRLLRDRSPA

KIT, sequence (P10721 whole entry): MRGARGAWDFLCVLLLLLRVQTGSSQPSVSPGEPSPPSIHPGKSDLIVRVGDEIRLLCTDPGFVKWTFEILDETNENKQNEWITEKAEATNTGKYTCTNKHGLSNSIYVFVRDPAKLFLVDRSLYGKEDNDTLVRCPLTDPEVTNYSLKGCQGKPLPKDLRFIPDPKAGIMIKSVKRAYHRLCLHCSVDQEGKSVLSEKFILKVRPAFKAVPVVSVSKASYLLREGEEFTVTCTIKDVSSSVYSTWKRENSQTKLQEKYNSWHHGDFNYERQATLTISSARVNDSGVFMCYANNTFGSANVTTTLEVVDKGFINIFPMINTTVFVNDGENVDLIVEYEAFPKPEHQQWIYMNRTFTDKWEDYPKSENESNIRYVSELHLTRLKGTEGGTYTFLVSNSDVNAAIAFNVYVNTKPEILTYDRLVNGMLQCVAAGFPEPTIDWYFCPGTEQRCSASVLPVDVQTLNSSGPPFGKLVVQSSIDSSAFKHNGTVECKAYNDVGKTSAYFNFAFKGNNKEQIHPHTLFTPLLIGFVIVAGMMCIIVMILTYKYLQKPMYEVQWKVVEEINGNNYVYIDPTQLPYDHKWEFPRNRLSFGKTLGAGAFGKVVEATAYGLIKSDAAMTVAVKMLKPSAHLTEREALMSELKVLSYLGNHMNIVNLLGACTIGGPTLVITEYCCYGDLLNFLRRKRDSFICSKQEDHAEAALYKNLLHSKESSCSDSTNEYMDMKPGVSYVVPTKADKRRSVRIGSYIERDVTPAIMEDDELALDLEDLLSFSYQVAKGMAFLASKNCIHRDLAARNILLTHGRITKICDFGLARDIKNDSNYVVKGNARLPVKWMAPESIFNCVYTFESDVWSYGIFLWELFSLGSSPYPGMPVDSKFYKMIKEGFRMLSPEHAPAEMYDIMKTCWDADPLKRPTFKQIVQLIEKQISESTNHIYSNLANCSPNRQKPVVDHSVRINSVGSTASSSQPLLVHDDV

Structure (SMILES) | inhibition at 1 µM (KIT) [%] | inhibition at 3 µM (KIT) [%] | inhibition at 10 µM (KIT) [%] | inhibition at 1 µM (IKBKB (IKK beta)) [%] | inhibition at 3 µM (IKBKB (IKK beta)) [%] | inhibition at 10 µM (IKBKB (IKK beta)) [%] | inhibition at 1 µM (MAPKAPK2) [%] | inhibition at 3 µM (MAPKAPK2) [%] | inhibition at 10 µM (MAPKAPK2) [%] | inhibition at 1 µM (CSK) [%] | inhibition at 3 µM (CSK) [%] | inhibition at 10 µM (CSK) [%] | inhibition at 1 µM (CSNK1D (CK1 delta)) [%] | inhibition at 3 µM (CSNK1D (CK1 delta)) [%] | inhibition at 10 µM (CSNK1D (CK1 delta)) [%] | inhibition at 1 µM (TYK2) [%] | inhibition at 3 µM (TYK2) [%] | inhibition at 10 µM (TYK2) [%] | inhibition at 1 µM (PDGFRB (PDGFR beta)) [%] | inhibition at 3 µM (PDGFRB (PDGFR beta)) [%] | also measured
O=C(CSc1nc2nccnc2c(=O)n1CCc1ccccc1)Nc1nccs1 [compound 1, PITCOIN1] | -11.3 | 5.95 | -5.32 | 8.34 | 4.24 | 4.15 | 4.27 | 5.91 | 1.1 | 3.79 | 4.7 | 4.31 | 4.82 | 3.36 | 10 | -4.9 | -7.09 | -1.29 | -2.01 | -3.23 | inhibition at 10 µM (PDGFRB (PDGFR beta)): 6.51%; inhibition at 1 µM (PRKCE (PKC epsilon)): -11.8%; inhibition at 3 µM (PRKCE (PKC epsilon)): 23.9%; inhibition at 10 µM (PRKCE (PKC epsilon)): -9.1%; inhibition at 1 µM (FGFR2): 1.54%; inhibition at 3 µM (FGFR2): 2.27%; inhibition at 10 µM (FGFR2): -1.86%; inhibition at 1 µM (PLK3): 3.02%; inhibition at 3 µM (PLK3): 3.24%; inhibition at 10 µM (PLK3): 5.6%
CS(=O)(=O)Nc1cccc(-c2csc(NC(=O)CSc3nc4nccnc4c(=O)n3CCc3ccccc3)n2)c1 [compound 3, PITCOIN3] | -9.5 | 14.5 | -3.62 | 3.7 | 14.3 | 12.2 | 0.509 | 3.08 | 6.37 | 9.48 | 7.4 | 6.13 | 5.88 | 7.07 | 7.02 | 3.78 | -2.18 | 4.5 | 4.69 | -3.18 | inhibition at 10 µM (PDGFRB (PDGFR beta)): 1.91%; inhibition at 1 µM (PRKCE (PKC epsilon)): -17.8%; inhibition at 3 µM (PRKCE (PKC epsilon)): -1.73%; inhibition at 10 µM (PRKCE (PKC epsilon)): -22.6%; inhibition at 1 µM (FGFR2): 6.04%; inhibition at 3 µM (FGFR2): 6.91%; inhibition at 10 µM (FGFR2): 3.2%; inhibition at 1 µM (PLK3): 3.58%; inhibition at 3 µM (PLK3): 4.83%; inhibition at 10 µM (PLK3): 4.26%

Source: publication PMC7613998, “Development of selective inhibitors of phosphatidylinositol 3-kinase C2α” (Nature Chemical Biology, 2022)
